According to patent US20190018003A1, “TUMOR DISCRIMINATION METHOD, DIAGNOSTIC AGENT FOR TUMOR, AND SENSITIZER FOR TUMOR DIAGNOSIS” (TOTO LTD., priority 2017, published 2019):

Assays:
[1] = test system: T24 urinary bladder cancer cells; assay: Fluorescence enhancement in T24 cells by separate administration of fluorescent dye (ALA) and particles, inverted fluorescence microscope; type: cell-based, human
Procedure: T24 cells (T24, JCRB0711) were prepared. This cell line was subcultured in an MEM medium (MEM, GlutaMAX™ supplement (Thermo Fisher Scientific), 10 v/v % FBS (Thermo Fischer Scientific)). The cultured cells which reached a logarithmic growth phase 3 days or 4 days later were peeled off with Trypsin/EDTA (Thermo Fisher Scientific) and, after the reaction was terminated in an MEM medium, centrifuged. The cell pellet obtained was suspended in an MEM medium. The cell suspension was subjected to measurement of cell density, inoculated onto a 6-well plate at a density of 3.6×10^4 cells/2 ml/well, and cultured for 3 days.
An aqueous ALA solution (50 mmol/l) was mixed into an MEM medium (MEM, GlutaMAX™ supplement (Thermo Fisher Scientific)) to form a 2 mmol/l ALA solution. Further, an aqueous solution of light scattering particles (2) (ii) was mixed into an MEM medium to form a 0.001 w/v % light scattering particle solution.
Evaluation was performed as follows. The medium of the T24 cells on a 6-well plate, obtained in Example 3, was removed by an aspirator, and thereto was added 2 ml of PBS (−) (Thermo Fisher Scientific). Once again, PBS (−) was removed by an aspirator, thereto was added 2 ml of an ALA solution, and the system was cultured for 2 hours. Then, the ALA solution on the 6-well plate was removed by an aspirator, thereto was added 2 ml of a light scattering particle solution, and the system was cultured for 2 hours. Further, the particle solution on the 6-well plate was removed by an aspirator, the residue was washed with HBSS (−) (Thermo Fisher Scientific), HBSS (−) was removed gain by an aspirator, to the residue was added 2 ml of HBSS (−), and the solution was used for observation and detection of fluorescence.
Observation and detection of fluorescence was performed by using an inverted fluorescence microscope (ECLIPSE Ti-E, Nikon). By using a halogen light source lamp and a 450 nm dichroic mirror, excitation light was irradiated through a 410 nm band pass filter of a 25 nm half-band width, and fluorescence was passed through a 600 nm long-pass filter. There were used an eyepiece of 10 times magnification and an objective lens of 20 times magnification and numerical aperture of 0.75. The irradiation aperture, exposure time, and gain were set to ND=8, 400 ms, and 14.0×, respectively. Fluorescent images were acquired by a cooling CCD color camera (DS-Fi3, Nikon) as digital images. By using an image analysis device IS-Elements AR ver.4.60 (Nikon), fluorescence was detected by subtracting luminance corresponding to dark noise from the image acquired, thereafter obtaining average luminance of all pixels where fluorescence is acquired, and calculating a fluorescence intensity. Also, the image acquired was observed visually.
Relative fluorescence intensity was calculated by using the fluorescence intensities acquired above according to the following formula:
[relative fluorescence intensity]=[fluorescence intensity under each condition]/[fluorescence intensity immediately after irradiation of observation light in the case of administration of fluorescent dye only]. […]
An aqueous ALA solution (50 mmol/l) was mixed into an MEM medium (MEM, GlutaMAX™ supplement (Thermo Fisher Scientific)) to form a 2 mmol/l ALA solution. An aqueous solution of silica particles having a particle size of 100 nm (sicastar, Silica Microsphere, Plain, 25 mg/ml, produced by Polyscience) was mixed into the MEM medium to form a 0.01 w/v % silica particle solution.
Evaluation was performed by removing the medium of the T24 cells on a 6-well plate, obtained in Example 3, under conditions where, in Example 4, PBS (−) and HBSS (−) were respectively changed to MEM medium and MEM medium (no glutamine, no phenol red (Thermo Fisher Scientific)), and the solution was used for detection of fluorescence. […]

[2] = test system: WI-38 immortalized normal cells; assay: Co-culture in the same visual field, fluorescence of WI-38 cell region; type: cell-based, human; conditions: Example 11, WI-38 cell line, ALA 2 mmol/l, particles 0.001 w/v %
Description: Co-culture pertaining to the present example for having the tumor cells and the immortalized normal cells exist in the same visual field will be described with reference to FIGS. 1A and 1B. For the co-culture, there was used CytoSelect™ 24-Well Cell Co-Culture System (manufactured by COSMO BIO). The T24 cell line was subcultured in an MEM medium (MEM, GlutaMAX™ supplement (Thermo Fisher Scientific), 10 v/v % FBS (Thermo Fisher Scientific)). The cultured cells which reached a logarithmic growth phase 3 days or 4 days later were peeled off with Trypsin/EDTA (Thermo Fisher Scientific) and, after the reaction was terminated in an MEM medium, centrifuged. The cell pellet obtained was suspended in an MEM medium. The cell suspension was subjected to measurement of cell density and inoculated onto a well at a density of 4.4×10^4 cells/0.225 ml/well, the well having an insert 2 of an 8 mm diameter disposed for preparing a cell-free region therein, and cultured for 2 days to form a monolayer in region 3 around the insert 2.
WI-38 cells were subcultured in an MEM medium. […]
Detection of fluorescence was performed in the same manner as in Example 4 by using an inverted fluorescence microscope (ECLIPSE Ti-E, Nikon). Images having a visual field of 3300 μm (width)×2200 μm (length) were obtained, and relative fluorescence intensities were calculated in the same manner as in Example 5.

Compound `NCC(=O)CCC(=O)O` [fluorescent dye, 5-aminolevulinic acid] has a Relative fluorescence intensity ([1]; Example 4, T24, ALA 2 mmol/l 2 h, then particles 0.001 w/v % 2 h, 50 seconds after observation light irradiation) of 0.4, a Relative fluorescence intensity ([1]; Example 4, T24, ALA 2 mmol/l 2 h, then particles 0.001 w/v % 2 h, 150 seconds after observation light irradiation) of 0.1 and a Relative fluorescence intensity ([1]; Example 4, T24, ALA 2 mmol/l 2 h, then particles 0.001 w/v % 2 h, immediately after observation light irradiation, relative to dye only immediately after irradiation) of 1.0. The Relative fluorescence intensity ([1]; Example 7, T24, ALA 2 mmol/l, administration of fluorescent dye only) was 1.0, the Relative fluorescence intensity ([1]; Example 10, T24 cell line, ALA 2 mmol/l, particles 0.001 w/v %) was 1.0 and the Relative fluorescence intensity ([1]; Example 12, T24, ALA 2 mmol/l, silica particles 0.01 w/v %, immediately after observation light irradiation) was 1.0. For the same compound, the Relative fluorescence intensity ([1]; Example 13, T24, ALA 2 mmol/l, polystyrene particles 0.01 w/v %, immediately after observation light irradiation) was 1.0, the Relative fluorescence intensity ([1]; Example 14, T24, ALA 2 mmol/l, particles 0.001 w/v %, immediately after observation light irradiation) was 1.0 and the Relative fluorescence intensity ([1]; Example 15, T24, ALA 2 mmol/l, particles 0.001 w/v %, immediately after observation light irradiation) was 1.0. The Relative fluorescence intensity [2] was 1.0.
